Source: PubChem BioAssay AID1963978 (Molecular Pharmacology Branch, DTP, NCI, 2024)
pIC50: −log10 of the molar value.

Test system: 616215-338-R-J1-PDC spheroids with HUVEC/MSC, viability
Assay: Anticancer human tumor 616215-338-R-J1-PDC patient-derived colon adenocarcinoma cell line growth inhibition [PI3K]
Conditions: for viability, T/C: stronger effect = lower value
How it was run: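 Viability of mixed-cell spheroids was determined after exposure to pairwise combinations, one partner being inavolisib, alpelisib, duvelisib or copanlisib. Highest tested concentration matched clinical Cmax where known and 10 microM where not, descending in half-log steps.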

[1] = curve of first compound, second compound 0.0316 µM
[2] = curve of first compound, second compound 0.1 µM
[3] = curve of first compound, second compound 0.316 µM
[4] = curve of first compound, second compound 1 µM
[5] = curve of first compound, second compound 3.16 µM
[6] = curve of first compound, second compound 10 µM
[7] = second compound 0.0316 µM, first compound 0.0316 µM
[8] = second compound 0.0316 µM, first compound 0.1 µM
[9] = second compound 0.0316 µM, first compound 0.316 µM
[10] = second compound 0.0316 µM, first compound 1 µM
[11] = second compound 0.0316 µM, first compound 3.16 µM
[12] = second compound 0.0316 µM, first compound 10 µM
[13] = second compound 0.1 µM, first compound 0.0316 µM
[14] = second compound 0.1 µM, first compound 0.1 µM
[15] = second compound 0.1 µM, first compound 0.316 µM
[16] = second compound 0.1 µM, first compound 1 µM
[17] = second compound 0.1 µM, first compound 3.16 µM
[18] = second compound 0.1 µM, first compound 10 µM
[19] = second compound 0.316 µM, first compound 0.0316 µM
[20] = second compound 0.316 µM, first compound 0.1 µM
[21] = second compound 0.316 µM, first compound 0.316 µM
[22] = second compound 0.316 µM, first compound 1 µM
[23] = second compound 0.316 µM, first compound 3.16 µM
[24] = second compound 0.316 µM, first compound 10 µM
[25] = second compound 1 µM, first compound 0.0316 µM
[26] = second compound 1 µM, first compound 0.1 µM
[27] = second compound 1 µM, first compound 0.316 µM
[28] = second compound 1 µM, first compound 1 µM
[29] = second compound 1 µM, first compound 3.16 µM
[30] = second compound 1 µM, first compound 10 µM
[31] = second compound 3.16 µM, first compound 0.0316 µM
[32] = second compound 3.16 µM, first compound 0.1 µM
[33] = second compound 3.16 µM, first compound 0.316 µM
[34] = second compound 3.16 µM, first compound 1 µM
[35] = second compound 3.16 µM, first compound 3.16 µM
[36] = second compound 3.16 µM, first compound 10 µM
[37] = second compound 10 µM, first compound 0.0316 µM
[38] = second compound 10 µM, first compound 0.1 µM
[39] = second compound 10 µM, first compound 0.316 µM
[40] = second compound 10 µM, first compound 1 µM
[41] = second compound 10 µM, first compound 3.16 µM
[42] = second compound 10 µM, first compound 10 µM
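Also: spheroids exposed to agents for seven days before the viability read.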

## Cn1nccc1Nc1nccc(-c2ccn(C(CO)c3ccc(Cl)c(F)c3)c(=O)c2)n1 (stereo unspecified) + CC(Nc1ncnc2nc[nH]c12)c1cc2cccc(Cl)c2c(=O)n1-c1ccccc1
[1]
  pIC50: 5.29
[2]
  pIC50: 5.25
[3]
  pIC50: 5.53
[4]
  pIC50: 5.24
[5]
  pIC50: 5.58
[6]
  pIC50: 5.82
[7]
  viability, T/C: 95.6%
[8]
  viability, T/C: 89.2%
[9]
  viability, T/C: 89.7%
[10]
  viability, T/C: 68.1%
[11]
  viability, T/C: 57%
[12]
  viability, T/C: 42.7%
[13]
  viability, T/C: 106%
[14]
  viability, T/C: 102%
[15]
  viability, T/C: 84.3%
[16]
  viability, T/C: 77.3%
[17]
  viability, T/C: 65.4%
[18]
  viability, T/C: 36.5%
[19]
  viability, T/C: 101%
[20]
  viability, T/C: 102%
[21]
  viability, T/C: 80.6%
[22]
  viability, T/C: 67.1%
[23]
  viability, T/C: 50.8%
[24]
  viability, T/C: 29.9%
[25]
  viability, T/C: 109%
[26]
  viability, T/C: 98.6%
[27]
  viability, T/C: 71.8%
[28]
  viability, T/C: 72.9%
[29]
  viability, T/C: 61.2%
[30]
  viability, T/C: 40.6%
[31]
  viability, T/C: 99.1%
[32]
  viability, T/C: 105%
[33]
  viability, T/C: 93.4%
[34]
  viability, T/C: 71.3%
[35]
  viability, T/C: 47.1%
[36]
  viability, T/C: 28%
[37]
  viability, T/C: 111%
[38]
  viability, T/C: 99%
[39]
  viability, T/C: 72.6%
[40]
  viability, T/C: 57.8%
[41]
  viability, T/C: 39.7%
[42]
  viability, T/C: 12.7%

## C=CC(=O)N1CCN(c2nc(=O)n(-c3c(C)ccnc3C(C)C)c3nc(-c4c(O)cccc4F)c(F)cc23)C(C)C1 (stereo unspecified)
Compound 0.0316 µM
  viability, T/C: 96.2% [middle of 4 runs]
Compound 0.1 µM
  viability, T/C: 92% [middle of 4 runs]
Compound 0.316 µM
  viability, T/C: 99% [middle of 4 runs]
Compound 1 µM
  viability, T/C: 99.8% [middle of 4 runs]
Compound 3.16 µM
  viability, T/C: 93% [middle of 4 runs]
Curve of compound
  pIC50: < 5.00

## C#Cc1c(F)ccc2cc(O)cc(-c3ncc4c(N5CC6CCC(C5)N6)nc(OCC56CCCN5CC(F)C6)nc4c3F)c12 (stereo unspecified) + CC(Nc1ncnc2nc[nH]c12)c1cc2cccc(Cl)c2c(=O)n1-c1ccccc1
[1]
  pIC50: < 5.00
[2]
  pIC50: < 5.00
[3]
  pIC50: < 5.00
[4]
  pIC50: < 5.00
[5]
  pIC50: < 5.00
[6]
  pIC50: < 5.00
[7]
  viability, T/C: 99.5%
[8]
  viability, T/C: 93.7%
[9]
  viability, T/C: 102%
[10]
  viability, T/C: 109%
[11]
  viability, T/C: 109%
[12]
  viability, T/C: 73.3%
[13]
  viability, T/C: 102%
[14]
  viability, T/C: 110%
[15]
  viability, T/C: 98.5%
[16]
  viability, T/C: 99.8%
[17]
  viability, T/C: 102%
[18]
  viability, T/C: 81.3%
[19]
  viability, T/C: 111%
[20]
  viability, T/C: 97.7%
[21]
  viability, T/C: 98.2%
[22]
  viability, T/C: 99.8%
[23]
  viability, T/C: 104%
[24]
  viability, T/C: 68.2%
[25]
  viability, T/C: 100%
[26]
  viability, T/C: 110%
[27]
  viability, T/C: 108%
[28]
  viability, T/C: 104%
[29]
  viability, T/C: 122%
[30]
  viability, T/C: 74.7%
[31]
  viability, T/C: 111%
[32]
  viability, T/C: 97.7%
[33]
  viability, T/C: 103%
[34]
  viability, T/C: 107%
[35]
  viability, T/C: 98.4%
[36]
  viability, T/C: 58.4%
[37]
  viability, T/C: 104%
[38]
  viability, T/C: 108%
[39]
  viability, T/C: 109%
[40]
  viability, T/C: 105%
[41]
  viability, T/C: 95%
[42]
  viability, T/C: 62.5%

## CC1(C)CCC(CN2CCN(c3ccc(C(=O)NS(=O)(=O)c4ccc(NCC5CCOCC5)c([N+](=O)[O-])c4)c(Oc4cnc5[nH]ccc5c4)c3)CC2)=C(c2ccc(Cl)cc2)C1 + COc1c(OCCCN2CCOCC2)ccc2c3n(c(=NC(=O)c4cnc(N)nc4)nc12)CCN3
Curve of first compound, second compound 0.00316 µM
  pIC50: < 5.00
Curve of first compound, second compound 0.01 µM
  pIC50: < 5.00
[1]
  pIC50: < 5.00
[2]
  pIC50: < 5.00
[3]
  pIC50: > 7.50
[4]
  pIC50: > 7.50
Second compound 0.00316 µM, first compound 0.0316 µM
  viability, T/C: 94%
Second compound 0.00316 µM, first compound 0.1 µM
  viability, T/C: 103%
Second compound 0.00316 µM, first compound 0.316 µM
  viability, T/C: 109%
Second compound 0.00316 µM, first compound 1 µM
  viability, T/C: 99.7%
Second compound 0.00316 µM, first compound 3.16 µM
  viability, T/C: 88.7%
Second compound 0.00316 µM, first compound 10 µM
  viability, T/C: 95.2%
Second compound 0.01 µM, first compound 0.0316 µM
  viability, T/C: 84.7%
Second compound 0.01 µM, first compound 0.1 µM
  viability, T/C: 95.1%
Second compound 0.01 µM, first compound 0.316 µM
  viability, T/C: 98.2%
Second compound 0.01 µM, first compound 1 µM
  viability, T/C: 98.7%
Second compound 0.01 µM, first compound 3.16 µM
  viability, T/C: 84.2%
Second compound 0.01 µM, first compound 10 µM
  viability, T/C: 96.8%
[7]
  viability, T/C: 96.8%
[8]
  viability, T/C: 99.4%
[9]
  viability, T/C: 100%
[10]
  viability, T/C: 102%
[11]
  viability, T/C: 93.1%
[12]
  viability, T/C: 109%
[13]
  viability, T/C: 96.1%
[14]
  viability, T/C: 93.6%
[15]
  viability, T/C: 107%
[16]
  viability, T/C: 87.8%
[17]
  viability, T/C: 83%
[18]
  viability, T/C: 95.2%
[19]
  viability, T/C: 47.4%
[20]
  viability, T/C: 41.2%
[21]
  viability, T/C: 45.5%
[22]
  viability, T/C: 42.5%
[23]
  viability, T/C: 27.6%
[24]
  viability, T/C: 33.2%
[25]
  viability, T/C: 24.3%
[26]
  viability, T/C: 24.4%
[27]
  viability, T/C: 25.5%
[28]
  viability, T/C: 21%
[29]
  viability, T/C: 13.2%
[30]
  viability, T/C: 30%

## CC(C)n1nc(-c2ccc3oc(N)nc3c2)c2c(N)ncnc21
Compound 0.000316 µM
  viability, T/C: 95.1% [middle of 4 runs]
Compound 0.001 µM
  viability, T/C: 95.7% [middle of 4 runs]
Compound 0.00316 µM
  viability, T/C: 100% [middle of 4 runs]
Compound 0.01 µM
  viability, T/C: 107% [middle of 4 runs]
Compound 0.0316 µM
  viability, T/C: 121% [middle of 4 runs]
Compound 0.1 µM
  viability, T/C: 94.5% [middle of 4 runs]
Curve of compound
  pIC50: < 7.00

## CCN1CCN(Cc2ccc(Nc3ncc(F)c(-c4cc(F)c5nc(C)n(C(C)C)c5c4)n3)nc2)CC1 + CC(Nc1ncnc2nc[nH]c12)c1cc2cccc(Cl)c2c(=O)n1-c1ccccc1
[1]
  pIC50: < 6.00
[2]
  pIC50: < 6.00
[3]
  pIC50: < 6.00
[4]
  pIC50: < 6.00
[5]
  pIC50: < 6.00
[6]
  pIC50: < 6.00
Second compound 0.0316 µM, first compound 0.00316 µM
  viability, T/C: 92%
Second compound 0.0316 µM, first compound 0.01 µM
  viability, T/C: 90.9%
[7]
  viability, T/C: 100%
[8]
  viability, T/C: 98.6%
[9]
  viability, T/C: 150%
[10]
  viability, T/C: 109%
Second compound 0.1 µM, first compound 0.00316 µM
  viability, T/C: 91.5%
Second compound 0.1 µM, first compound 0.01 µM
  viability, T/C: 88.2%
[13]
  viability, T/C: 104%
[14]
  viability, T/C: 106%
[15]
  viability, T/C: 137%
[16]
  viability, T/C: 149%
Second compound 0.316 µM, first compound 0.00316 µM
  viability, T/C: 95.2%
Second compound 0.316 µM, first compound 0.01 µM
  viability, T/C: 93.9%
[19]
  viability, T/C: 98.2%
[20]
  viability, T/C: 100%
[21]
  viability, T/C: 147%
[22]
  viability, T/C: 106%
Second compound 1 µM, first compound 0.00316 µM
  viability, T/C: 98.5%
Second compound 1 µM, first compound 0.01 µM
  viability, T/C: 90.5%
[25]
  viability, T/C: 105%
[26]
  viability, T/C: 108%
[27]
  viability, T/C: 148%
[28]
  viability, T/C: 79.7%
Second compound 3.16 µM, first compound 0.00316 µM
  viability, T/C: 106%
Second compound 3.16 µM, first compound 0.01 µM
  viability, T/C: 93.9%
[31]
  viability, T/C: 123%
[32]
  viability, T/C: 124%
[33]
  viability, T/C: 144%
[34]
  viability, T/C: 86.8%
Second compound 10 µM, first compound 0.00316 µM
  viability, T/C: 111%
Second compound 10 µM, first compound 0.01 µM
  viability, T/C: 107%
[37]
  viability, T/C: 118%
[38]
  viability, T/C: 120%
[39]
  viability, T/C: 114%
[40]
  viability, T/C: 57.9%
